Active and inactive are the calls of the source. The rule behind the calls is not given here. Positions of bridges follow the written chain, without caps; N, C: chain ends. Non-standard residues stand in square brackets, D forms with d. Residues, ends and D or L forms follow the SMILES beside them. *: point of attachment. X1 = CC[C@H](C)CCCCC(=O)*; Dab = NCC[C@H](N)C(=O)O
Key:
[1] = Hemolytic activity in human red blood cell assessed as hemolysis at 128 microg/ml measured after 1 hrs by microplate reader assay relative to control; type: toxicity, cell-based, Erythrocyte; conditions: red blood cells, at 128 µg/mL, read-out: Activity
Escherichia coli [2] = experiment: Antimicrobial activity against Escherichia coli ATCC 25922 assessed as inhibition of visible microbial growth incubated for 18 hrs by broth microdilution method; type: functional
Cell membrane [3] = experiment: Induction of cytoplasmic membrane depolarization in multidrug resistant Pseudomonas aeruginosa assessed as increase in fluorescence intensity measured for 12 min by DISC3-5 dye based fluorescence analysis; type: subcellular; conditions: dose 4-32 µg/ml
Staphylococcus aureus [4] = experiment: Drug resistance, ratio of MIC for Staphylococcus aureus ATCC 29213 after 4 passages to MIC for Staphylococcus aureus ATCC 29213 after first exposure; type: functional
Cell membrane [5] = experiment: Induction of outer cell membrane permeabilization in multidrug resistant Pseudomonas aeruginosa assessed as increase in fluorescence intensity measured for 12 mins by NPN uptake assay; type: subcellular; conditions: dose 4-32 µg/ml
Staphylococcus aureus [6] = experiment: Antibacterial activity against multidrug resistant Staphylococcus aureus assessed as reduction in bacterial growth at 32 microg/mL measured after 1.5 hrs by bactericidal kinetic assay; type: functional, organism-based; conditions: dose 32.0 µg/ml
Staphylococcus aureus [7] = experiment: Antimicrobial activity against multidrug resistant Staphylococcus aureus assessed as inhibition of visible microbial growth incubated for 18 hrs by broth microdilution method; type: functional
Escherichia coli [8] = experiment: Antimicrobial activity against multidrug resistant Escherichia coli assessed as inhibition of visible microbial growth incubated for 18 hrs by broth microdilution method; type: functional
BEAS-2B = experiment: Cytotoxicity against human BEAS-2B cells assessed as reduction in cell viability at 2 to 64 microg/mL measured after 24 hrs by CCK-8 assay; type: toxicity, cell-based; conditions: dose 2-64 µg/ml
L02 = experiment: Cytotoxicity against human LO2 cells assessed as reduction in cell viability at 2 to 64 microg/mL measured after 24 hrs by CCK-8 assay; type: toxicity, cell-based; conditions: l02, 24 h, dose 2-64 µg/ml
[9] = Cytotoxicity against human BEAS-2B cells assessed as inhibition of cell growth measured after 24 hrs by CCK-8 assay; type: toxicity, cell-based
Staphylococcus aureus [10] = experiment: Drug resistance, ratio of MIC for multidrug resistant Staphylococcus aureus after 4 passages to MIC for multidrug resistant Staphylococcus aureus after first exposure; type: functional
Acinetobacter baumannii = experiment: Antimicrobial activity against multidrug resistant Acinetobacter baumannii assessed as inhibition of visible microbial growth incubated for 18 hrs by broth microdilution method; type: functional
Pseudomonas aeruginosa [11] = experiment: Antimicrobial activity against multidrug resistant Pseudomonas aeruginosa assessed as inhibition of visible microbial growth incubated for 18 hrs by broth microdilution method; type: functional
Staphylococcus aureus [12] = experiment: Antimicrobial activity against Staphylococcus aureus ATCC 29213 assessed as inhibition of visible microbial growth incubated for 18 hrs by broth microdilution method; type: functional
Pseudomonas aeruginosa [13] = experiment: Antibacterial activity against multidrug resistant Pseudomonas aeruginosa assessed as reduction in bacterial growth at 32 microg/mL measured within 30 min by bactericidal kinetic assay relative to control; type: functional; set-up: scale not given: the % may be the effect or the level left; conditions: dose 32 µg/ml, 0.5 h
Pseudomonas aeruginosa [14] = experiment: Drug resistance, ratio of MIC for multidrug resistant Pseudomonas aeruginosa after 14 passages to MIC for multidrug resistant Pseudomonas aeruginosa after first exposure; type: functional
[15] = Stability in 25% human plasma assessed as compound remaining measured after 24 hrs by RP-HPLC analysis; type: ADME, cell-free; conditions: 25% plasma, read-out: Stability
Cell membrane [16] = experiment: Induction of outer cell membrane permeabilization in multidrug resistant Pseudomonas aeruginosa assessed as increase in fluorescence intensity at >16 microg/ml measured for 12 mins by NPN uptake assay; type: subcellular; conditions: dose > 16.0 µg/ml
Staphylococcus aureus [17] = experiment: Drug resistance, ratio of MIC for multidrug resistant Staphylococcus aureus after 10 passages to MIC for multidrug resistant Staphylococcus aureus after first exposure; type: functional
Bacillus subtilis = experiment: Antibacterial activity against Bacillus subtilis; type: functional
Staphylococcus aureus [18] = experiment: Drug resistance, ratio of MIC for Staphylococcus aureus ATCC 29213 after 14 passages to MIC for Staphylococcus aureus ATCC 29213 after first exposure; type: functional
Pseudomonas aeruginosa [19] = experiment: Drug resistance, ratio of MIC for multidrug resistant Pseudomonas aeruginosa after 5 passages to MIC for multidrug resistant Pseudomonas aeruginosa after first exposure; type: functional
[20] = Nephrotoxicity in female C57BL/6 mouse assessed as tubular dilation at 20 mg/kg, ip administered daily and measured for 5 days by H and E staining based analysis; type: toxicity, organism-based; conditions: in vivo, 120 h, time 5 day
[21] = Toxicity in female C57BL/6 mouse assessed as histopathological change in kidney at 20 mg/kg, ip administered daily and measured for 5 days by H and E staining based analysis; type: organism-based; conditions: in vivo, 120 h, time 5 day
[22] = Nephrotoxicity in female C57BL/6 mouse assessed as presence of flocculents in lumen at 20 mg/kg, ip administered daily and measured for 5 days by H and E staining based analysis; type: toxicity, organism-based; conditions: in vivo, 120 h, time 5 day
[23] = Nephrotoxicity in female C57BL/6 mouse assessed as increase in BUN level at 15 mg/kg, ip administered daily and measured for 5 days; type: toxicity, organism-based; conditions: in vivo, 120 h, time 5 day

Compound: H-GIGKFLKKAKKFGKAFVKILKK-OH
- hemolysis at 1 h, 128 µg/mL [1]: < 10%
- MIC (Escherichia coli [2]): 3.2 µM
- Activity (Cell membrane [3]): Dose-dependent-effect
- Ratio (Staphylococcus aureus [4]): 8
- Activity (Cell membrane [5]): Dose-dependent-effect
- Activity (Staphylococcus aureus [6]): Not active; Bacterial Regrowth Observed
- MIC (Staphylococcus aureus [7]): 12.9 µM
- MIC (Escherichia coli [8]): 3.2 µM
- Activity (BEAS-2B): Toxic
- Activity (L02): Toxic
- CC50 at 24 h [9]: 45.9 µg/mL
- Ratio (Staphylococcus aureus [10]): 8
- MIC (Acinetobacter baumannii): 1.6 µM
- MIC (Pseudomonas aeruginosa [11]): 3.2 µM
- MIC (Staphylococcus aureus [12]): 12.9 µM
- Activity (Pseudomonas aeruginosa [13]): 100%
- Ratio (Pseudomonas aeruginosa [14]): 4
- remaining at 24 h [15]: 34%
- Activity (Cell membrane [16]): Active

Compound: CN[C@H](CC(C)C)C(=O)N[C@H]1C(=O)N[C@@H](CC(N)=O)C(=O)N[C@H]2C(=O)N[C@H]3C(=O)N[C@H](C(=O)N[C@H](C(=O)O)c4cc(O)cc(O)c4-c4cc3ccc4O)[C@H](O)c3ccc(c(Cl)c3)Oc3cc2cc(c3O[C@@H]2O[C@H](CO)[C@@H](O)[C@H](O)[C@H]2O[C@H]2C[C@](C)(N)[C@H](O)[C@H](C)O2)Oc2ccc(cc2Cl)[C@H]1O [VANCOMYCIN]
- Ratio (Staphylococcus aureus [4]): 4
- MIC (Staphylococcus aureus [7]): 0.7 µM
- MIC (Staphylococcus aureus [12]): 0.7 µM
- Ratio (Staphylococcus aureus [17]): 2

Compound: H-GLRKRLRKFFNKIKF-OH
- MIC (Escherichia coli [2]): 8.2 µM
- MIC (Bacillus subtilis): > 3 µM
- MIC (Staphylococcus aureus [7]): 65.7 µM
- MIC (Escherichia coli [8]): 4.1 µM
- MIC (Acinetobacter baumannii): 16.4 µM
- MIC (Pseudomonas aeruginosa [11]): 16.4 µM
- MIC (Staphylococcus aureus [12]): 32.8 µM

Compound: C[C@H]1COc2c(N3CCN(C)CC3)c(F)cc3c(=O)c(C(=O)O)cn1c23 [LEVOFLOXACIN ANHYDROUS]
- Ratio (Staphylococcus aureus [18]): 512
- Ratio (Staphylococcus aureus [10]): 4
- Ratio (Pseudomonas aeruginosa [19]): 16

Compound: CC(C)CCCCC(=O)N[C@@H](CCN)C(=O)N[C@H](C(=O)N[C@@H](CCN)C(=O)N[C@H]1CCNC(=O)[C@H]([C@@H](C)O)NC(=O)[C@H](CCN)NC(=O)[C@H](CCN)NC(=O)[C@H](CC(C)C)NC(=O)[C@@H](Cc2ccccc2)NC(=O)[C@H](CCN)NC1=O)[C@@H](C)O.CC[C@H](C)CCCCC(=O)N[C@@H](CCN)C(=O)N[C@H](C(=O)N[C@@H](CCN)C(=O)N[C@H]1CCNC(=O)[C@H]([C@@H](C)O)NC(=O)[C@H](CCN)NC(=O)[C@H](CCN)NC(=O)[C@H](CC(C)C)NC(=O)[C@@H](Cc2ccccc2)NC(=O)[C@H](CCN)NC1=O)[C@@H](C)O (X1-[Dab]T[Dab][Dab][Dab][dF]L[Dab][Dab]T; lactam 4-C)
- Activity [20]: Toxic
- Activity [21]: Non-toxic
- Activity [22]: Toxic
- Activity [23]: Toxic

From ChEMBL document CHEMBL6134827, “The discovery of novel antimicrobial peptides against drug-resistant bacteria based on fragments fusion strategy” (Eur J Med Chem, 2025)
